# The NIST ThermoML archive (doi:10.1016/j.fluid.2014.06.021)
# ± gives the expanded uncertainty stated by the source.
# What was measured:
# [1] = 101.33 kPa, Liquid, Vibrating tube method
# [2] = activity coefficient (dimensionless); of the first substance listed, at infinite dilution; xn = mol fraction of the nth substance listed; details: 101.33 kPa, Liquid, Chromatography, x1 = 0
compound,measurement,setting,value
C[n+]1ccn(CCCCS(=O)(=O)O)c1.O=S(=O)([O-])C(F)(F)F,mass density,[1]; 298.15 K,1478.4 ± 2 kg/m3
same,mass density,[1]; 299.45 K,1478 ± 2 kg/m3
same,mass density,[1]; 300.75 K,1477 ± 2 kg/m3
same,mass density,[1]; 302.15 K,1476.1 ± 2 kg/m3
same,mass density,[1]; 303.45 K,1475.3 ± 2 kg/m3
same,mass density,[1]; 304.75 K,1474.7 ± 2 kg/m3
same,mass density,[1]; 305.85 K,1473.8 ± 2 kg/m3
same,mass density,[1]; 307.15 K,1472.8 ± 2 kg/m3
same,mass density,[1]; 308.65 K,1472 ± 2 kg/m3
same,mass density,[1]; 310.35 K,1470.9 ± 2 kg/m3
same,mass density,[1]; 311.75 K,1470.1 ± 2 kg/m3
same,mass density,[1]; 313.05 K,1469.3 ± 2 kg/m3
same,mass density,[1]; 314.45 K,1468.2 ± 2 kg/m3
same,mass density,[1]; 315.85 K,1467.3 ± 2 kg/m3
same,mass density,[1]; 317.25 K,1466.3 ± 2 kg/m3
same,mass density,[1]; 318.75 K,1465.6 ± 2 kg/m3
same,mass density,[1]; 320.05 K,1464.8 ± 2 kg/m3
same,mass density,[1]; 321.45 K,1463.7 ± 2 kg/m3
same,mass density,[1]; 322.85 K,1462.7 ± 1.9 kg/m3
same,mass density,[1]; 324.65 K,1461.5 ± 1.9 kg/m3
same,mass density,[1]; 326.65 K,1461.3 ± 1.9 kg/m3
same,mass density,[1]; 328.45 K,1460.2 ± 1.9 kg/m3
same,mass density,[1]; 338.55 K,1453.7 ± 1.9 kg/m3
same,mass density,[1]; 343.5 K,1450.6 ± 1.9 kg/m3
C[n+]1ccn(CCCCS(=O)(=O)O)c1.O=S(=O)([N-]S(=O)(=O)C(F)(F)F)C(F)(F)F,mass density,[1]; 298.15 K,1577 ± 2 kg/m3
same,mass density,[1]; 299.45 K,1575.8 ± 2.3 kg/m3
same,mass density,[1]; 300.75 K,1574.9 ± 2.3 kg/m3
same,mass density,[1]; 302.15 K,1573.7 ± 2.3 kg/m3
same,mass density,[1]; 303.45 K,1572.7 ± 2.3 kg/m3
same,mass density,[1]; 304.75 K,1571.5 ± 2.3 kg/m3
same,mass density,[1]; 305.85 K,1570.5 ± 2.3 kg/m3
same,mass density,[1]; 307.15 K,1569.2 ± 2.3 kg/m3
same,mass density,[1]; 308.65 K,1568 ± 2 kg/m3
same,mass density,[1]; 310.35 K,1566.7 ± 2.2 kg/m3
same,mass density,[1]; 311.75 K,1565.5 ± 2.2 kg/m3
same,mass density,[1]; 313.05 K,1564.3 ± 2.2 kg/m3
same,mass density,[1]; 314.45 K,1563.2 ± 2.2 kg/m3
same,mass density,[1]; 315.85 K,1562 ± 2 kg/m3
same,mass density,[1]; 317.25 K,1560.9 ± 2.2 kg/m3
same,mass density,[1]; 318.75 K,1559.8 ± 2.2 kg/m3
same,mass density,[1]; 320.05 K,1558.8 ± 2.2 kg/m3
same,mass density,[1]; 321.45 K,1557.7 ± 2.2 kg/m3
same,mass density,[1]; 322.85 K,1556.4 ± 2.2 kg/m3
same,mass density,[1]; 324.65 K,1554.8 ± 2.2 kg/m3
same,mass density,[1]; 326.65 K,1553.4 ± 2.2 kg/m3
same,mass density,[1]; 328.45 K,1551.8 ± 2.2 kg/m3
same,mass density,[1]; 338.55 K,1543.9 ± 2.2 kg/m3
same,mass density,[1]; 343.5 K,1539.7 ± 2.2 kg/m3
C[n+]1ccn(CCCCS(=O)(=O)O)c1.O=S(=O)([O-])O [1-methyl-3-(4-sulfobutyl)-imidazolium hydrogensulfate],mass density,[1]; 298.15 K,1437.7 ± 1.9 kg/m3
same,mass density,[1]; 299.45 K,1436.9 ± 1.9 kg/m3
same,mass density,[1]; 300.75 K,1436.3 ± 1.9 kg/m3
same,mass density,[1]; 302.15 K,1435.4 ± 1.9 kg/m3
same,mass density,[1]; 303.45 K,1434.8 ± 1.9 kg/m3
same,mass density,[1]; 304.75 K,1434 ± 2 kg/m3
same,mass density,[1]; 305.85 K,1433.3 ± 1.9 kg/m3
same,mass density,[1]; 307.15 K,1432.4 ± 1.9 kg/m3
same,mass density,[1]; 308.65 K,1431.7 ± 1.9 kg/m3
same,mass density,[1]; 310.35 K,1430.8 ± 1.9 kg/m3
same,mass density,[1]; 311.75 K,1430 ± 2 kg/m3
same,mass density,[1]; 313.05 K,1429.3 ± 1.9 kg/m3
same,mass density,[1]; 314.45 K,1428.5 ± 1.9 kg/m3
same,mass density,[1]; 315.85 K,1427.8 ± 1.9 kg/m3
same,mass density,[1]; 317.25 K,1426.9 ± 1.8 kg/m3
same,mass density,[1]; 318.75 K,1426.4 ± 1.8 kg/m3
same,mass density,[1]; 320.05 K,1425.8 ± 1.8 kg/m3
same,mass density,[1]; 321.45 K,1424.7 ± 1.8 kg/m3
same,mass density,[1]; 322.85 K,1423.9 ± 1.8 kg/m3
same,mass density,[1]; 324.65 K,1423.2 ± 1.8 kg/m3
same,mass density,[1]; 326.65 K,1422.1 ± 1.8 kg/m3
same,mass density,[1]; 328.45 K,1421.2 ± 1.8 kg/m3
same,mass density,[1]; 338.55 K,1414.5 ± 1.8 kg/m3
same,mass density,[1]; 343.5 K,1411.7 ± 1.8 kg/m3
C1CCCCCC1 [cycloheptane] + C[n+]1ccn(CCCCS(=O)(=O)O)c1.O=S(=O)([N-]S(=O)(=O)C(F)(F)F)C(F)(F)F,activity coefficient,[2]; 323.15 K,92.5 ± 6.4
same,activity coefficient,[2]; 333.15 K,144 ± 9.9
same,activity coefficient,[2]; 343.15 K,180 ± 12
CO [methanol] + C[n+]1ccn(CCCCS(=O)(=O)O)c1.O=S(=O)([N-]S(=O)(=O)C(F)(F)F)C(F)(F)F,activity coefficient,[2]; 323.15 K,0.06
same,activity coefficient,[2]; 333.15 K,0.08 ± 0.03
same,activity coefficient,[2]; 343.15 K,0.09 ± 0.03
C[N+](=O)[O-] [nitromethane] + C[n+]1ccn(CCCCS(=O)(=O)O)c1.O=S(=O)([O-])O,activity coefficient,[2]; 323.15 K,1.58 ± 0.1
same,activity coefficient,[2]; 333.15 K,1.59 ± 0.11
same,activity coefficient,[2]; 343.15 K,1.6 ± 0.11
ClC(Cl)Cl [trichloromethane] + C[n+]1ccn(CCCCS(=O)(=O)O)c1.O=S(=O)([O-])O,activity coefficient,[2]; 323.15 K,6.65 ± 0.45
same,activity coefficient,[2]; 333.15 K,6.73 ± 0.46
same,activity coefficient,[2]; 343.15 K,6.84 ± 0.47
CCCCCCCCCCCCCC [tetradecane] + C[n+]1ccn(CCCCS(=O)(=O)O)c1.O=S(=O)([O-])O,activity coefficient,[2]; 323.15 K,1910 ± 130
same,activity coefficient,[2]; 333.15 K,1750 ± 120
same,activity coefficient,[2]; 343.15 K,1680 ± 120
C#CCCCCC [1-heptyne] + C[n+]1ccn(CCCCS(=O)(=O)O)c1.O=S(=O)([O-])C(F)(F)F,activity coefficient,[2]; 323.15 K,25.9 ± 1.8
same,activity coefficient,[2]; 333.15 K,25.7 ± 1.8
same,activity coefficient,[2]; 343.15 K,24.8 ± 1.7
c1ccccc1 [benzene] + C[n+]1ccn(CCCCS(=O)(=O)O)c1.O=S(=O)([N-]S(=O)(=O)C(F)(F)F)C(F)(F)F,activity coefficient,[2]; 323.15 K,1.95 ± 0.13
same,activity coefficient,[2]; 333.15 K,2.07 ± 0.14
same,activity coefficient,[2]; 343.15 K,2.15 ± 0.15
CCOCC [diethyl ether] + C[n+]1ccn(CCCCS(=O)(=O)O)c1.O=S(=O)([O-])C(F)(F)F,activity coefficient,[2]; 323.15 K,4.51 ± 0.31
same,activity coefficient,[2]; 333.15 K,4.36 ± 0.3
same,activity coefficient,[2]; 343.15 K,4.21 ± 0.29
C#CCCCC [1-hexyne] + C[n+]1ccn(CCCCS(=O)(=O)O)c1.O=S(=O)([O-])C(F)(F)F,activity coefficient,[2]; 323.15 K,15.5 ± 1.1
same,activity coefficient,[2]; 333.15 K,14.4 ± 0.99
same,activity coefficient,[2]; 343.15 K,13.5 ± 0.92
Cc1ccccc1 [toluene] + C[n+]1ccn(CCCCS(=O)(=O)O)c1.O=S(=O)([O-])O,activity coefficient,[2]; 323.15 K,28.3 ± 1.9
same,activity coefficient,[2]; 333.15 K,26.6 ± 1.8
same,activity coefficient,[2]; 343.15 K,24.9 ± 1.7
CCCC(C)=O [pentan-2-one] + C[n+]1ccn(CCCCS(=O)(=O)O)c1.O=S(=O)([N-]S(=O)(=O)C(F)(F)F)C(F)(F)F,activity coefficient,[2]; 323.15 K,0.42 ± 0.04
same,activity coefficient,[2]; 333.15 K,0.52 ± 0.04
same,activity coefficient,[2]; 343.15 K,0.64 ± 0.04
CC(C)OC(C)C [diisopropyl ether] + C[n+]1ccn(CCCCS(=O)(=O)O)c1.O=S(=O)([O-])C(F)(F)F,activity coefficient,[2]; 323.15 K,11.7 ± 0.8
same,activity coefficient,[2]; 333.15 K,13.3 ± 0.91
same,activity coefficient,[2]; 343.15 K,14.9 ± 1
CCc1ccccc1 [ethylbenzene] + C[n+]1ccn(CCCCS(=O)(=O)O)c1.O=S(=O)([O-])O,activity coefficient,[2]; 323.15 K,62.7 ± 4.3
same,activity coefficient,[2]; 333.15 K,57.6 ± 3.9
same,activity coefficient,[2]; 343.15 K,54.5 ± 3.7
CCCO [propan-1-ol] + C[n+]1ccn(CCCCS(=O)(=O)O)c1.O=S(=O)([N-]S(=O)(=O)C(F)(F)F)C(F)(F)F,activity coefficient,[2]; 333.15 K,0.13 ± 0.03
same,activity coefficient,[2]; 343.15 K,0.16 ± 0.03
CCCC(C)=O [pentan-2-one] + C[n+]1ccn(CCCCS(=O)(=O)O)c1.O=S(=O)([O-])O,activity coefficient,[2]; 323.15 K,13.4 ± 0.92
same,activity coefficient,[2]; 333.15 K,13.2 ± 0.9
same,activity coefficient,[2]; 343.15 K,12.5 ± 0.85
CCC(=O)CC [pentan-3-one] + C[n+]1ccn(CCCCS(=O)(=O)O)c1.O=S(=O)([O-])C(F)(F)F,activity coefficient,[2]; 323.15 K,2.31 ± 0.16
same,activity coefficient,[2]; 333.15 K,2.33 ± 0.16
same,activity coefficient,[2]; 343.15 K,2.44 ± 0.17
CC(C)O [propan-2-ol] + C[n+]1ccn(CCCCS(=O)(=O)O)c1.O=S(=O)([N-]S(=O)(=O)C(F)(F)F)C(F)(F)F,activity coefficient,[2]; 333.15 K,0.09 ± 0.03
same,activity coefficient,[2]; 343.15 K,0.11 ± 0.03
CCO [ethanol] + C[n+]1ccn(CCCCS(=O)(=O)O)c1.O=S(=O)([N-]S(=O)(=O)C(F)(F)F)C(F)(F)F,activity coefficient,[2]; 333.15 K,0.08 ± 0.03
same,activity coefficient,[2]; 343.15 K,0.1
ClC(Cl)Cl [trichloromethane] + C[n+]1ccn(CCCCS(=O)(=O)O)c1.O=S(=O)([N-]S(=O)(=O)C(F)(F)F)C(F)(F)F,activity coefficient,[2]; 323.15 K,1.81 ± 0.12
same,activity coefficient,[2]; 333.15 K,1.83 ± 0.12
same,activity coefficient,[2]; 343.15 K,1.86 ± 0.13
CCCCCCCCCCC [undecane] + C[n+]1ccn(CCCCS(=O)(=O)O)c1.O=S(=O)([O-])O,activity coefficient,[2]; 323.15 K,1490 ± 100
same,activity coefficient,[2]; 333.15 K,1370 ± 94
same,activity coefficient,[2]; 343.15 K,1310 ± 90
ClCCl [dichloromethane] + C[n+]1ccn(CCCCS(=O)(=O)O)c1.O=S(=O)([O-])O,activity coefficient,[2]; 323.15 K,3.5 ± 0.24
same,activity coefficient,[2]; 333.15 K,3.48 ± 0.24
same,activity coefficient,[2]; 343.15 K,3.37 ± 0.23
CCCCCCCCCCC [undecane] + C[n+]1ccn(CCCCS(=O)(=O)O)c1.O=S(=O)([N-]S(=O)(=O)C(F)(F)F)C(F)(F)F,activity coefficient,[2]; 323.15 K,515 ± 35
same,activity coefficient,[2]; 333.15 K,448 ± 31
same,activity coefficient,[2]; 343.15 K,425 ± 29
CCCCCCCCCCCCC [tridecane] + C[n+]1ccn(CCCCS(=O)(=O)O)c1.O=S(=O)([O-])C(F)(F)F,activity coefficient,[2]; 323.15 K,1940 ± 130
same,activity coefficient,[2]; 333.15 K,1550 ± 110
same,activity coefficient,[2]; 343.15 K,1220 ± 84
"Cc1ccccc1C [1,2-dimethylbenzene] + C[n+]1ccn(CCCCS(=O)(=O)O)c1.O=S(=O)([O-])O",activity coefficient,[2]; 323.15 K,43.8 ± 3
same,activity coefficient,[2]; 333.15 K,41.3 ± 2.8
same,activity coefficient,[2]; 343.15 K,40.8 ± 2.8
CC(C)CO [2-methyl-1-propanol] + C[n+]1ccn(CCCCS(=O)(=O)O)c1.O=S(=O)([N-]S(=O)(=O)C(F)(F)F)C(F)(F)F,activity coefficient,[2]; 333.15 K,0.22 ± 0.03
same,activity coefficient,[2]; 343.15 K,0.26 ± 0.03
